Experimental data taken from patent US5514662A, “Use of amphotericin B derivatives as protease inhibitors” (priority 1991, dated 1996).

Key:
leucocyte elastase = test: Activity of DABF-AmB on various proteases: leucocyte elastase; assay type: biochemical; details: 1 μM
Protocol: (§1) DABF-AmB was tested, at a concentration of 1 μM, on various proteases (papain, chymotrypsin, kallicrein, leucocyte elastase, cathopsin D and recombinant protease p10) under conditions and in the presence of substrates appropriate for each of the proteases tested.

papain = papain (Carica papaya, UniProt P00784); test: Activity of DABF-AmB on various proteases: papain; assay type: biochemical; details: 1 μM
papain, sequence (P00784 134-345): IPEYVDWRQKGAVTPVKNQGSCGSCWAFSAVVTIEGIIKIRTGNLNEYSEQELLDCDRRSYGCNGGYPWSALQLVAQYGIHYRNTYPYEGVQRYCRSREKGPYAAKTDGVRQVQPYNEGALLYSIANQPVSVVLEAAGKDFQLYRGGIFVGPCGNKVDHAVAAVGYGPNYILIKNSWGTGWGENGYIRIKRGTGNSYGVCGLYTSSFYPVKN
Protocol: as §1

HIV-1 = test: Reverse transcriptase activity in HIV-1 infected PBMCs; assay type: cell-based
Protocol: (§2) The T cells (Jurkat and CEM) used are very permissive to HIV infection. They are cultured in RPMI 1640 medium supplemented with 10% foetal calf serum, 2 mM of glutamine and a mixture of penicillin and streptomycin. The peripheral blood mononuclear cells are obtained from blood from healthy donors, isolated on a Ficoll Hypaque gradient and stimulated with 10 μg/ml of phytohaemagglutinin A (PHA), for two days, in RPMI 1640 medium supplemented, prior to the infection by HIV, with amikacin and vancomycin (10 mg/ml), polybrene (1 mg/ml) and anti-interferon gamma serum (5 U/ml). After infection, the PBMCs are cultured (10^5 per well) in flat-bottomed 96-well plates in the same RPMI 1640 medium (200 μl per well).
The PBMCs cells (2×10^6 /ml) are infected with the same viruses and under the same conditions as the Jurkat or CEM cells. They are then washed and resuspended in fresh culture medium in flat-bottomed 96-well plates (10^5 cells per well in […]).
The reverse transcriptase activity is determined at the indicated times using the culture supernatant, according to the procedure described by REY et al., Biochem. Res. Comm. 121, 126-133 (1984).
PBMCs isolated from healthy individuals are infected with HIV-1. The production of antigen p24 as well as the reverse transcriptase activity can be detected in the supernatants of cultures infected 3 days after the infection. The maximum reverse transcriptase activity and p24 synthesis are observed between the 6th and 7th day, and the 5th and 6th day respectively. No cell death is observed at this time.
The infected PBMCs are treated continuously as described above for the Jurkat and CEM cells, using increasing concentrations of DABF-AmB.
(§3) The effect of DABF-AmB on the reverse transcriptase activity and on the secretion of p24 is evaluated on the 6th day.

viral antigen p24 = test: Secretion of p24 in HIV-1 infected PBMCs; assay type: cell-based; details: Human immunodeficiency virus 1, PBMC, read-out: inhibition of synthesis of p24
Protocol: as §2
The PBMCs cells (2×10^6 /ml) are infected with the same viruses and under the same conditions as the Jurkat or CEM cells. […]
The viral antigen p24 was quantified in the infected-cell supernatant by radioimmunological assay using the procedure recommended by the manufacturer (ABBOTT, Diagnostics Division).
PBMCs isolated from healthy individuals are infected with HIV-1. The production of antigen p24 as well as the reverse transcriptase activity can be detected in the supernatants of cultures infected 3 days after the infection. […]
as §3

HIV LAV/BRU = test: Protection of CD4 cells in cultures of HIV-infected human thymocytes; assay type: cell-based, HIV-1
Protocol: Human thymuses were obtained during corrective heart surgery operations on 3 to 7 year old children. The tissues were cut into fragments and the red blood cells were removed by treating with […] buffer. After washing in PBS buffer, cellular suspensions were prepared in an RPMI 1640 medium containing 10% of human serum type […]. Dead cells were removed by passing over a sterile nylon wool column.
The cells were infected with HIV LAV/BRU as indicated above in the general procedures, and then re-inoculated in the presence of PHA, of anti-CD2 or anti-CD3 antibodies and of IL2 and cultured for 10 days at a rate of 1×10^7 cells/ml. After 10 days, viral production was evaluated by measuring the RT activity in the supernatants and the distribution of CD4/CD8 was evaluated by double fluorescence flow cytometry by means of FITC-labelled anti-CD4 antibodies (OKT4) and phycoerythrin-labelled anti-CD8 antibodies (OKT8). DABF-AmB was added to the cultures immediately after infection and maintained during the entire duration of the culture.

LTR of HIV = test: Early phases of HIV infection: transactivation of LTR-LacZ in CD4 HeLa cells (blue colonies); assay type: cell-based, HIV-1; details: 10 μM, 24 hours after infection
Protocol: HeLa cells transfected with the CD4 gene and capable of being infected by HIV, carrying the bacterial gene LacZ placed under the control of the LTR of HIV ROCANCOURT et al., J. Virol., 64:2660-2668, (1990)!, were infected with HIV-1BRU. […] This detection was carried out after fixing the cells by incubating for one hour in-the presence of 5-bromo-4-chloro-3-indoyl-β-D-[…] and enzyme substrate.

SIVmac251 = test: Formation of syncytia in HUT78 cells infected with SIVmac251; assay type: cell-based, SIV
Protocol: HUT78 cells were inoculated in 96-well plates in an amount of 2×10^4 cells per well, in […]. They were infected with various viral concentrations and DABF-AmB was added immediately after the infection, at various concentrations. The formation of syncytia was evaluated after 3 and 5 days by direct reading under an inverted microscope (semi-quantitative test).

[1] = system: HIV-1 isolates derived from patients; test: Infection of PBMCs by HIV-1 isolates derived from patients; assay type: cell-based; details: 10 μM, 10 viral strains derived from patients, RT activity after 10 days
Protocol: PBMCs were infected under the conditions described above in the general procedures, with various HIV-1 isolates derived from patients, or identified as resistant to AZT. The anti-viral effect of DABF-AmB was determined by measuring the RT activity in the supernatants after 10 days of culture.

HeLa-Ohio cells = test: Cytotoxicity in HeLa-Ohio cells; assay type: cell-based, human; details: 20 μM for 4 weeks

`C[C@@H]1[C@H](O)[C@@H](C)/C=C/C=C/C=C/C=C/C=C/C=C/C=C/[C@H](O[C@@H]2O[C@H](C)[C@@H](O)[C@H](NCC(=O)[C@@H](O)[C@@H]3OC(c4ccccc4)OC[C@H]3O)[C@@H]2O)C[C@@H]2O[C@](O)(C[C@@H](O)C[C@@H](O)[C@H](O)CC[C@@H](O)C[C@@H](O)CC(=O)O[C@H]1C)C[C@H](O)[C@H]2C(=O)O` (stereo partly drawn) [DABF-AmB, 1-deoxy-1-amino-4,6-O-benzylidene-D-fructosyl-AmB] was tested, and the “inhibition of leucocyte elastase” value (leucocyte elastase) was “inhibits”, the inhibition of papain (papain) was “does not inhibit” and the inhibition at 10 µM (HIV-1; Human immunodeficiency virus 1, PBMC, 144 h, PBMCs, 10 μM, 6th day, N=3) was 92 ± 4%. For the same compound, the “increase in the anti-HIV action in PBMCs” value (HIV-1; concentrations above 20 μM) was “do not bring about a significant increase”, the “anti-HIV inhibition in PBMCs (in words)” value (HIV-1; concentrations below 1 μM) was “only a low inhibition” and the inhibition at 10 µM (viral antigen p24) was 88 ± 6%. The “RT activity in the supernatants of infected thymocytes” value (HIV LAV/BRU; 10 days) was “decrease in RT activity”, the “CD4+ cells in infected thymocyte cultures” value (HIV LAV/BRU; in proportion to the concentration) was “preservation or the reappearance of CD4+ cells” and the “infection of CD4+ thymocytes and distribution of subpopulations of thymic cells” value (HIV LAV/BRU; infected cultures) was “inhibits the infection of CD4+ thermocytes by HIV and restores a normal distribution of the subpopulations of thymic cells”. For the same compound, the “inhibition of appearance of blue colonies” value (LTR of HIV) was “completely inhibits”, the formation of syncytia (SIVmac251; 0.1 μM, 10 TCID50, 3 days) was “-” and the formation of syncytia (SIVmac251; 0.1 μM, 10 TCID50, 5 days) was “+”. The formation of syncytia (SIVmac251; 0.1 μM, 100 TCID50, 3 days) was “+”, the formation of syncytia (SIVmac251; 0.5 μM, 10 TCID50, 3 days) was “-” and the formation of syncytia (SIVmac251; 0.5 μM, 10 TCID50, 5 days) was “+”. The formation of syncytia (SIVmac251; 0.5 μM, 100 TCID50, 3 days) was “+”, the formation of syncytia (SIVmac251; 1 μM, 10 TCID50, 3 days) was “-” and the formation of syncytia (SIVmac251; 1 μM, 10 TCID50, 5 days) was “+”. For the same compound, the formation of syncytia (SIVmac251; 1 μM, 100 TCID50, 3 days) was “+”, the formation of syncytia (SIVmac251; 5 μM, 10 TCID50, 3 days) was “-” and the formation of syncytia (SIVmac251; 5 μM, 10 TCID50, 5 days) was “- and +”. For the same compound, the formation of syncytia (SIVmac251; 5 μM, 100 TCID50, 3 days) was “- and +”, the formation of syncytia (SIVmac251; 5 μM, 100 TCID50, 5 days) was “- and +” and the formation of syncytia (SIVmac251; 5 μM, 500 TCID50, 3 days) was “- and +”. For the same compound, the formation of syncytia (SIVmac251; 5 μM, 500 TCID50, 5 days) was “+ and -”, the formation of syncytia (SIVmac251; 10 μM, 10 TCID50, 3 days) was “-” and the formation of syncytia (SIVmac251; 10 μM, 10 TCID50, 5 days) was “-”. The formation of syncytia (SIVmac251; 10 μM, 100 TCID50, 3 days) was “-”, the formation of syncytia (SIVmac251; 10 μM, 100 TCID50, 5 days) was “- and +” and the formation of syncytia (SIVmac251; 10 μM, 500 TCID50, 3 days) was “-”. For the same compound, the formation of syncytia (SIVmac251; 10 μM, 500 TCID50, 5 days) was “- and +”, the formation of syncytia (SIVmac251; 50 μM, 10 TCID50, 3 days) was “-” and the formation of syncytia (SIVmac251; 50 μM, 100 TCID50, 3 days) was “-”. The formation of syncytia (SIVmac251; 50 μM, 100 TCID50, 5 days) was “-”, the formation of syncytia (SIVmac251; 50 μM, 500 TCID50, 3 days) was “-” and the formation of syncytia (SIVmac251; 50 μM, 500 TCID50, 5 days) was “-”. The formation of syncytia (SIVmac251; 100 μM, 10 TCID50, 5 days) was “-”, the formation of syncytia (SIVmac251; 100 μM, 100 TCID50, 3 days) was “-” and the formation of syncytia (SIVmac251; 100 μM, 100 TCID50, 5 days) was “-”. The formation of syncytia (SIVmac251; 100 μM, 500 TCID50, 3 days) was “-”, the formation of syncytia (SIVmac251; 100 μM, 500 TCID50, 5 days) was “-” and the “inhibition of formation of syncytia (in words)” value (SIVmac251; HUT78, SIV) was “in a dose-dependent manner”. The “inhibition of infection of PBMC” value [1] was “substantially reducing, or even completely inhibiting” and the cytotoxic effect (HeLa-Ohio cells) was “no cytotoxic effect”.
